# What was measured:
# [1] = test system: BLA neurons (GIRK currents); assay: whole-cell patch-clamp in acute brain slices, basolateral amygdala (BLA) neurons; type: cell-based, rat; conditions: for current response of BLA neurons (in words): −50 mV
# Procedure: Electrophysiological recordings from brain slices containing basolateral amygdala (BLA) neurons: Electrophysiology was performed using 150-200 g male Sprague-Dawley rats (Harlan/Envigo, Indianapolis, IN). Rats were group housed in plastic cages in standard housing conditions with ad libitum access to food and water with 12:12 light/dark cycle (lights on at 07:00 h). All experiments were conducted in accordance with the Guide for the Care and Use of Laboratory Animals (Institute for Laboratory Animal Research, The National Academies Press) and the guidelines of the IUPUI Institutional Animal Care and Use Committee. Rats were anesthetized with isoflurane and immediately decapitated. Brains were then rapidly removed, placed in ice-cold oxygenated artificial cerebrospinal fluid solution (ACSF) and coronal slices ([…]) were prepared containing the amygdala. Slices were incubated at 31° C. for 30 min and then returned to room temperature until recording. [ACSF solution in mM: 130 NaCl; 3.5 KCl; 1.1 KH2PO4; 1.3 MgCl2; 2.5 CaCl2; 30 NaHCO3; 10 glucose, 315 mOsm, 7.4 pH]. Cells were identified for recording at 40× magnification using Scientifica Slicescope microscope under DIC illumination (Scientifica, Uckfield, UK). ACSF was warmed to 30° C. and perfused at a rate of 2-3 ml/min during recordings. Compounds were added to ACSF at desired concentrations. Whole-cell patch-clamp recordings were obtained using standard techniques. Borosilicate glass electrodes (WPI, Sarasota, FL) (resistance 3-6 MΩ) were prepared and used for both recording and baclofen application. [Recording internal solution in mM: 140 K-gluconate; 2 KCl; 3 MgCl2; 10 HEPES; 5 Phosphocreatinine; 2 K-ATP; 0.2 Na-GTP, 290 mOsm, 7.4 pH]. In voltage-clamp mode, the cell was adjusted to −50 mV at the beginning of all experiments and 5 min stable baseline was established before treatment. Picospritzer II (Parker Hannifin, Hollis, NH) was utilized for local application of 100 μM GABA-B agonist baclofen in ACSF to activate GIRKs. Baseline and baclofen-induced currents were averaged from three responses per cell and analyzed using ClampFit software (Molecular Devices, San Jose, CA). […] Several control cells were subjected to baclofen at 2 min intervals for 30 min and consistent responses were observed, thus ruling out time-dependent effects.
# The inventors employed whole-cell patch-clamp recording in acute brain slices to examine the effect of GAT1508. The inventors utilized brain slices that included the basolateral amygdala (BLA), a limbic structure that has been extensively described to coordinate the acquisition and expression of fear memories. […] Next, the inventors examined the response of BLA neurons to baclofen, a GABAB-receptor agonist that induces GIRK-mediated potassium currents. […]
# GIRK1/2 = target: T1, GIRK1/2 (UniProt P48542+P48549); assay: thallium flux assay, cells expressing GIRK1/2; type: cell-based; design: expressed in transfected cells
# T1 sequence (P48549 1-501): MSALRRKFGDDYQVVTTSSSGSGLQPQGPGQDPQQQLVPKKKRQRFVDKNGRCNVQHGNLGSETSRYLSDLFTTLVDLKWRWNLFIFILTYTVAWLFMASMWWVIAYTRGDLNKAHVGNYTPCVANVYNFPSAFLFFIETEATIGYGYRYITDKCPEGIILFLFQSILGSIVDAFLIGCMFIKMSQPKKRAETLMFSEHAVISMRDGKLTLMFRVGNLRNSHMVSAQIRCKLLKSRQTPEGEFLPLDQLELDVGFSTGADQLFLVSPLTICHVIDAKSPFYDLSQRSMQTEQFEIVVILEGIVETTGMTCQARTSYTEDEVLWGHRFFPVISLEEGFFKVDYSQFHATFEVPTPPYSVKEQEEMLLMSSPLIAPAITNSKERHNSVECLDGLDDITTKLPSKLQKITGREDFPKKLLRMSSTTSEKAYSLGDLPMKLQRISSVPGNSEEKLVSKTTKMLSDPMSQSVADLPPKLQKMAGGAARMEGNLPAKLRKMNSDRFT
# T1 sequence (P48542 1-425): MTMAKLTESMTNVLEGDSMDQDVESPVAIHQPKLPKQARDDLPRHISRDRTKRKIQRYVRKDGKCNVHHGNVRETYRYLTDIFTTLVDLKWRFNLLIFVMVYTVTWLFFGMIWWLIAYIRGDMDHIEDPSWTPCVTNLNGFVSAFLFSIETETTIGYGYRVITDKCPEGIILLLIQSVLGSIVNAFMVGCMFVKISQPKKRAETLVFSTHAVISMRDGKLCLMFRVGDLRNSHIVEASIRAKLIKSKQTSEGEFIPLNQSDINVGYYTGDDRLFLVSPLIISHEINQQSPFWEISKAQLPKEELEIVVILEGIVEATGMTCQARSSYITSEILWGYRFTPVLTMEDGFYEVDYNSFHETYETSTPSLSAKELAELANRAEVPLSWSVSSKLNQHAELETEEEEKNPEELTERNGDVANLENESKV
# Text: Previous studies have utilized the thallium flux Assay to test the effects of ML297 and related compounds in cells coexpressing GIRK1/2 and GIRK1/4. In order to fully investigate the selective activation of GAT compounds, the inventors also utilized this assay. […] To determine the differences between the thallium flux and TEVC assays, the inventors computationally tested whether the binding of selective compounds could affect the selectivity of the pore area. The Cα RMSF of the region between the M1 and M2 helices of the channel were calculated during the MD simulation with or without ML297 and the selective GAT compounds in the GIRK2/2^FD and GIRK4/4^FD systems (FIGS. 60A-60B). […] To further test this idea, the inventors compared the 10 μM GAT1508-induced thallium and potassium currents in oocytes expressing GIRK1/2 and GIRK1/4 by TEVC recording (FIG. 61B). […] In an effort to enhance the current, the TEVC recording was performed at a holding potential of −100 mV.
EC50 (GIRK1/2) [nM],Compound,current response of BLA neurons (in words) ([1]; 10 μM perfusion),current response of BLA neurons (in words) ([1]; 30 μM perfusion),"effect on baclofen-induced current in BLA neurons (in words) ([1]; 10 min perfusion of 10 μM, 100 μM baclofen puff)"
,"Cc1cc(NC(=O)Nc2ccc(Br)s2)n(-c2ccccc2)n1 [GAT1508, 1-(5-bromothiophen-2-yl)-3-(3-methyl-1-phenyl-1H-pyrazol-5-yl)urea]",did not produce responses,produced significant outward current,significantly potentiated baclofen-induced current
~689,"Cc1cc(NC(=O)Nc2ccc(F)c(F)c2)n(-c2ccccc2)n1 [ML297, reference compound]",,,

# From US12351574B2, “Selective ligands for modulation of GIRK channels” (Northeastern University, priority 2018, dated 2025)
